Like-named read-outs stand apart in the source and are kept apart here.

For this experiment, the system named is HIV-1 (H9IIIB or NL4-3 virus) replication in MT4-GFP cells. In words: microbe, parasite or virus in culture. The experiment is classed as cell-based. The following applies: inhibition of reproductive ratio R0, 48-72 h post-infection.
Where [1] appears, read: Human immunodeficiency virus 1, NL43, MT4-GFP cells infected with HIV-1, 100% normal human serum, read-out: ViKinG IP (nM) with 100% NHS.
The mark [2] stands for this setting: Human immunodeficiency virus 1, NL43, MT4-GFP cells infected with HIV-1, serum free conditions (0% NHS), read-out: ViKinG IP (nM) with 0% NHS.
[3] abbreviates: MT4-GFP cells infected with HIV-1, 100% normal human serum, read-out: ViKinG IP (nM) with 100% NHS.
The mark [4] stands for this setting: MT4-GFP cells infected with HIV-1, serum free conditions (0% NHS), read-out: ViKinG IP (nM) with 0% NHS.
Setting [5] is: Human immunodeficiency virus 1, NL43, MT4-GFP cells infected with HIV-1, 10% normal human serum, read-out: ViKinG IP (nM) with 10% NHS.
[6] abbreviates: MT4-GFP cells infected with HIV-1, 10% normal human serum, read-out: ViKinG IP (nM) with 10% NHS.

As for `CN1C(=O)c2c(O)c(=O)c(C(=O)NCc3cccc(Cl)c3F)cn2N(C)C12CCOC2` (single isomer, unassigned) [Compound 109], the IC50 under setting [1] came to 229 nM and the IC50 under setting [2] is 0.6 nM.

On to `CN1C(=O)c2c(O)c(=O)c(C(=O)NCc3ccc(F)cc3F)cn2CC12CCOC2` (single isomer, unassigned) [Compound 57], for which the IC50 reads like this: under setting [1], 36 nM; under setting [2], 1.6 nM.

For the compound `CCN1C(=O)c2c(O)c(=O)c(-c3nnc(Cc4ccc(F)cc4F)s3)cn2N(C)C12CCN(C(=O)OC)CC2` [Compound 8], the IC50 was 131 nM under setting [1] and 5.5 nM under setting [2].

`CCOC(=O)N1CCC2(CC1)Cn1cc(-c3nnc(Cc4ccc(F)cc4F)s3)c(=O)c(O)c1C(=O)N2` [Compound 96]: the IC50 was 2240 nM under setting [1] and 69.3 nM under setting [2].

With `COCCCN1C(=O)c2c(O)c(=O)c(C(=O)NCc3ccc(F)cc3F)cn2CC12CCCOC2` (single isomer, unassigned) [Compound 86], the IC50 under setting [3] worked out at 177 nM and the IC50 under setting [4] was 9.3 nM.

For the compound `CCN1C(=O)c2c(O)c(=O)c(-c3nnc(Cc4ccc(F)cc4F)s3)cn2N(C)C12CCN(C(C)=O)CC2` [Compound 10], the IC50 under setting [5] stood at 57 nM and the IC50 under setting [1] stood at 1500 nM.

Regarding `CC1OCCC12N(C)C(=O)c1c(O)c(=O)c(C(=O)NCc3ccc(F)cc3F)cn1N2C` (single isomer, unassigned) [Compound 134], the IC50 reads like this: under setting [3], 65 nM; under setting [4], 0.9 nM.

In the case of `CN1C(=O)c2c(O)c(=O)c(C(=O)NCc3ccc(F)cc3)cn2CC12CCOC2` (single isomer, unassigned) [Compound 59], the IC50 under setting [1] is 56 nM and the IC50 under setting [2] was determined as 1.9 nM.

On to `CN1C(=O)c2c(O)c(=O)c(C(=O)NCc3c(F)cc(F)cc3F)cn2CC12CCOC2` (single isomer, unassigned) [Compound 64], for which the IC50 by setting is: under setting [3], 26 nM; under setting [4], 3.3 nM.

As to `COCCN1C(=O)c2c(O)c(=O)c(C(=O)NCc3ccc(F)cc3F)cn2N(C)C12CCOC2` (single isomer, unassigned) [Compound 121], the IC50 is, setting by setting: under setting [5], 39 nM; under setting [2], 1.8 nM; under setting [3], 575 nM.

As to `COCCN1C(=O)c2c(O)c(=O)c(C(=O)NCc3ccc(F)cc3F)cn2CC12CCOCC2` [Compound 42], the IC50 stood at 234 nM under setting [1] and 2.4 nM under setting [2].

For the compound `COCCN1n2cc(C(=O)NCc3ccc(F)cc3F)c(=O)c(O)c2C(=O)N(C)C12CCOC2` (single isomer, unassigned) [Compound 155], the IC50 under setting [3] was 37 nM.

On to `CN1C(=O)c2c(O)c(=O)c(-c3nnc(Cc4ccc(F)cc4F)s3)cn2N(C)C12CCN(c1ccccn1)CC2` [Compound 30], for which the IC50 was determined as 280 nM under setting [1] and 38.5 nM under setting [2].

In the case of `COCCCN1C(=O)c2c(O)c(=O)c(C(=O)NCc3ccc(F)cc3F)cn2N(C)C12CCOCC2` [Compound 141], the IC50 under setting [1] was 71 nM and the IC50 under setting [2] is 2.3 nM.

With `CCN1C(=O)c2c(O)c(=O)c(-c3nnc(Cc4ccc(F)cc4F)s3)cn2N(C)C12CCOC2` (single isomer, unassigned) [Compound 36], the IC50 under setting [3] was 368 nM and the IC50 under setting [4] was determined as 3.8 nM.

Take `CC1OCCC12N(C)C(=O)c1c(O)c(=O)c(C(=O)NCc3cccc(Cl)c3F)cn1N2C` (single isomer, unassigned) [Compound 137]: the IC50 by setting is: under setting [3], 64 nM; under setting [4], 0.7 nM.

`CN1C(=O)c2c(O)c(=O)c(C(=O)NCc3ccccc3F)cn2N(C)C12CCOC2` (single isomer, unassigned) [Compound 111]: the IC50 is 158 nM under setting [1] and 1.6 nM under setting [2].

As to `CN1C(=O)c2c(O)c(=O)c(C(=O)NCc3ccc(F)cc3F)cn2N(CC2CC2)C12CCOC2` (single isomer, unassigned) [Compound 151], the IC50 is, setting by setting: under setting [1], 240 nM; under setting [2], 0.7 nM.

With `COCCCN1C(=O)c2c(O)c(=O)c(C(=O)NCc3ccc(F)cc3F)cn2CC12CCOC2` (single isomer, unassigned) [Compound 73], the IC50 is, setting by setting: under setting [1], 30 nM; under setting [2], 1.8 nM.

Consider `CN1C(=O)c2c(O)c(=O)c(C(=O)NCc3cccc(Cl)c3F)cn2CC12CCOC2` (single isomer, unassigned) [Compound 66], for which the IC50 stood at 40 nM under setting [3] and 1.5 nM under setting [4].

`COCN1n2cc(C(=O)NCc3ccc(F)cc3F)c(=O)c(O)c2C(=O)N(C)C12CCOC2` (single isomer, unassigned) [Compound 153]: the IC50 is, setting by setting: under setting [2], 1.3 nM; under setting [3], 275 nM.

For the compound `COCCN1C(=O)c2c(O)c(=O)c(C(=O)NCc3ccc(F)c(C)c3F)cn2CC12CCOC2` (single isomer, unassigned) [Compound 53], the IC50 reads like this: under setting [1], 2570 nM; under setting [2], 5.3 nM.

Take `CCN1C(=O)c2c(O)c(=O)c(C(=O)NCc3ccc(F)cc3F)cn2N(C)C12CCNCC2` [Compound 173]: the IC50 was determined as 52 nM under setting [1] and 3.2 nM under setting [2].

As to `C[C@@H]1CC2(CCN1C(=O)OCc1ccccc1)N(C)C(=O)c1c(O)c(=O)c(-c3nnc(Cc4ccc(F)cc4F)s3)cn1N2C` (stereo partly shown) [Compound 20], the IC50 under setting [5] was 234 nM.

For the compound `CN1C(=O)c2c(O)c(=O)c(C(=O)NCc3ccc(F)cc3F)cn2N(C)C12CCNC2` (single isomer, unassigned) [Compound 170], the IC50 under setting [3] worked out at 66 nM and the IC50 under setting [4] is 5 nM.

For the compound `COCCN1C(=O)c2c(O)c(=O)c(C(=O)NCc3ccc(F)cc3F)cn2CC12CCOC2` (single isomer, unassigned) [Compound 50], the IC50 is 107 nM under setting [3] and 3.1 nM under setting [4].

In the case of `CN1C(=O)c2c(O)c(=O)c(C(=O)NCc3ccc(F)cc3F)cn2N(CCCC(F)(F)F)C12CCOC2` (single isomer, unassigned) [Compound 164], the IC50 under setting [1] stood at 178 nM.

Turning to `CN1C(=O)c2c(O)c(=O)c(C(=O)NCc3ccc(F)c(Cl)c3)cn2N(C)C12CCOC2` (single isomer, unassigned) [Compound 107], the IC50 under setting [2] was found to be 1.2 nM and the IC50 under setting [3] was 790 nM.

Turning to `CN1C(=O)c2c(O)c(=O)c(C(=O)NCc3ccc(F)cc3F)cn2N(CCO)C12CCOC2` (stereo not shown) [Compound 148], the IC50 was found to be 33 nM under setting [3] and 1.2 nM under setting [4].

`CN1C(=O)c2c(O)c(=O)c(C(=O)NCc3ccc(F)cc3F)cn2N(C)C12CCOC2` (stereo not shown) [Compound 104]: the IC50 reads like this: under setting [6], 4 nM; under setting [3], 87 nM; under setting [4], 0.8 nM.

With `COCCCN1C(=O)c2c(O)c(=O)c(C(=O)NCc3ccc(F)cc3F)cn2N(C)C12CCOC2` (single isomer, unassigned) [Compound 123], the IC50 under setting [2] worked out at 1.2 nM, the IC50 under setting [6] is 9 nM and the IC50 under setting [3] stood at 117 nM.

With `CN1C(=O)c2c(O)c(=O)c(C(=O)NCc3c(F)cccc3F)cn2N(C)C12CCOC2` (single isomer, unassigned) [Compound 116], the IC50 by setting is: under setting [3], 42 nM; under setting [4], 0.7 nM.

Consider `O=C1c2c(O)c(=O)c(-c3nnc(Cc4ccc(F)cc4F)s3)cn2CC2(CCOC2)N1CCO` (stereo not shown) [Compound 97], for which the IC50 under setting [1] is 1050 nM and the IC50 under setting [2] is 41.7 nM.

Turning to `CCN1C(=O)c2c(O)c(=O)c(C(=O)NCc3ccc(F)cc3F)cn2CC12CCOCC2` [Compound 40], the IC50 by setting is: under setting [1], 236 nM; under setting [2], 2.8 nM.

In the case of `CN1C(=O)c2c(O)c(=O)c(C(=O)NCc3ccc(F)cc3F)cn2N(C)C12CCNC2` (single isomer, unassigned) [Compound 169], the IC50 under setting [2] was determined as 4.4 nM and the IC50 under setting [3] turned out to be 512 nM.

Turning to `CN1C(=O)c2c(O)c(=O)c(C(=O)NCc3cccc(Cl)c3F)cn2N(C)C12COCC2(C)C` (single isomer, unassigned) [Compound 127], the IC50 came to 134 nM under setting [1] and 1 nM under setting [2].

`CCOCCN1C(=O)c2c(O)c(=O)c(C(=O)NCc3ccc(F)cc3F)cn2N(C)C12CCOC2` (single isomer, unassigned) [Compound 126]: the IC50 is 455 nM under setting [3] and 1.3 nM under setting [4].

With `COCCCN1n2cc(C(=O)NCc3ccc(F)cc3F)c(=O)c(O)c2C(=O)N(C)C12CCOC2` (single isomer, unassigned) [Compound 158], the IC50 under setting [3] turned out to be 168 nM and the IC50 under setting [4] is 1 nM.

With `COCN1C(=O)c2c(O)c(=O)c(C(=O)NCc3ccc(F)cc3F)cn2CC12CCOC2` (single isomer, unassigned) [Compound 75], the IC50 runs as follows: under setting [2], 1.8 nM; under setting [3], 559 nM.

Turning to `CC1OCCC12N(C)C(=O)c1c(O)c(=O)c(C(=O)NCc3ccc(F)cc3F)cn1N2C` (single isomer, unassigned) [Compound 133], the IC50 under setting [3] was determined as 55 nM.

For `CCCN1C(=O)c2c(O)c(=O)c(C(=O)NCc3ccc(F)cc3F)cn2CC12CCOC2` (racemic) [Compound 67], the IC50 came to 3600 nM under setting [1] and 6.6 nM under setting [2].

For the compound `COCCN1C(=O)c2c(O)c(=O)c(C(=O)NCc3ccc(F)cc3)cn2CC12CCOC2` (single isomer, unassigned) [Compound 51], the IC50 under setting [1] turned out to be 196 nM and the IC50 under setting [2] was 4.8 nM.

For `CN1C(=O)c2c(O)c(=O)c(C(=O)NCc3ccc(F)cc3F)cn2N(CCO)C12CCOC2` (stereo not shown) [Compound 147], the IC50 runs as follows: under setting [2], 1.6 nM; under setting [3], 74 nM.

For the origin of these results see patent US9707234B2, “Spirocyclic hetercycle compounds useful as HIV integrase inhibitors” (MERCK SHARP & DOHME CORP., priority 2013, dated 2017).
